# Reference: US11369596B2, “Methods of treating a neurodegenerative disease in a mammal in need thereof” (Thomas Jefferson University, priority 2013, dated 2022)
# Legend:
# [1] = tested on: liver of SOD1-G93A mice; conditions: mouse, in vivo
# Method: Periodic Acid Schiff Staining:
# Saline perfused liver was postfixed with 4% paraformaldehyde for 24 h followed by 24 h incubation in 30% sucrose solution, embedded in OCT solution, and stored at −80° C. until sectioned (10 μm thickness). Sections were hydrated with water, immersed in PAS solutions (Sigma; 395) for 5 min at room temperature, and washed in water. Sections were immersed for 4 min in Schiff's reagent and washed in water for 5 min. Sections were counterstained with hematoxylin solution, dehydrated in ethanol and HemoD solution, mounted, and imaged.
# [2] = tested on: SOD1-G93A mice
# Method: Drug Treatment and Survival Analysis:
# Baseline and study measures were recorded for weight, grip strength, food consumption, and survival. Determination of end-stage was the inability for a mouse to right itself after 30 seconds of being placed on its side.
# [3] = tested on: ALS; conditions: ALS patients; cited from earlier work
# [4] = tested on: SOD1-G93A mice; assay: Compound muscle action potential (CMAP) recordings; type: in vivo; conditions: 140 day SOD1-G93A mice
# Source text: Compound Muscle Action Potential (CMAP) Recordings:
# Mice were anesthetized with 1% isoflurane and 0.5% oxygen. Following dermatomoty, stainless steel-stimulating needle electrodes were inserted at the sciatic notch, near the sciatic nerve. A ground electrode was placed subcutaneously in the back, and a reference electrode placed subcutaneously at the ankle. The sciatic nerve was stimulated (0.2 ms duration; 1.6 mV amplitude) and the response recorded via a needle electrode inserted into the plantar muscle in the medial half of the foot, following the line connecting the first and fifth tarsal/metatarsal joints. Data was collected using ADI Powerlab 8/30 stimulator and BioAMP amplifier (ADInstruments, Colorado Springs, Colo.) and analyzed using Scope 3.5.6 (ADInstruments). The compound muscle action potential (M-wave) amplitude was measured from baseline to peak. Data was averaged between left and right hind limb traces.
Compound,liver toxicity (periodic acid Schiff staining) [1],"effect on disease progression / survival ([2]; chronic elacridar alone, beginning at disease onset, SOD1-G93A mice)","safety of chronic treatment ([2]; mouse, in vivo)",slowing of disease progression [3],CMAP peak amplitude [4]
"COc1cc2c(cc1OC)CN(CCc1ccc(NC(=O)c3cccc4c(=O)c5cccc(OC)c5[nH]c34)cc1)CC2 [elacridar, N-[4-[2-(3,4-dihydro-6,7-dimethoxy-2(1H)-isoquinolinyl)ethyl]phenyl]-9,10-dihydro-5-methoxy-9-oxo-4-acridine carboxamide]",did not cause liver toxicity,did not alter disease progression,safe,–,–
"Nc1nc2ccc(OC(F)(F)F)cc2s1 [riluzole, 6-(trifluoromethoxy)benzothiazol-2-amine]",–,–,–,3-9 months,5.00±0.67 mV
